# In US10143696B2, “Methods and compositions for decreasing gastric emptying” (priority 2015, dated 2018):
# Where two headings read alike, the source gives them in different places.
# Assays:
# cynomolgus monkeys = type: in vivo
# Experimental: Studies in cynomolgous monkeys were conducted by Battelle (Columbus, Ohio). Eleven monkeys, seven males and four females that had been previously received, quarantined, and acclimated and were naïve (females), or had not been used on other studies for a minimum of 6 months (males), were utilized. Prior to use on study, monkeys were acclimated to chair restraint for up to 2 hours. Chair restraint was used to facilitate dose administration and blood collection. Animals were individually housed in stainless steel cages. Monkeys were offered a certified diet twice daily and had access to fresh water ad libitum. The animals also were supplemented with fresh fruits and/or fresh vegetables. Monkeys were fasted overnight prior to dose administration.
# Observations for moribundity and mortality were performed on all animals twice daily throughout the duration of the study. Cage-side clinical observations were recorded for all animals prior to dose administration and at the times of blood collection.
# (§1) As such, a pharmacokinetic and observational study was conducted in cynomologous monkeys (FIG. 16). Plasma concentrations of Compound A were measured following a single oral dose of 10, 50 and 100 mg/kg up to 24 hours post-dosing (FIGS. 16A, B and C).
# Sprague-Dawley rats [1] = assay: Repeated oral administration: gastric emptying, food intake, body weight; type: in vivo, rat
# Experimental: Rats were fasted overnight (16-18 hours) with free access to water. The next morning, compound was administered and animals were individually housed in bedding-free cages with pre-weighed food available ad libitum and access to water for 2 hours. The water and food were then removed and the remaining food was re-weighed. Gastric emptying of the ingested meal was assessed 4 hours later. Animals were euthanized by CO2 inhalation followed by thoracotomy. The abdominal cavity was opened, the pylorus and cardia were clamped and the stomach was removed. The excised stomach was weighed and then opened along the greater curvature, rinsed with tap water, lightly dried and re-weighed. The amount of food in the stomach (grams) was estimated based on the difference between the total weight of the stomach plus its contents and the weight of the stomach after the contents were removed. The meal ingested (food intake) was determined by the difference between pre- and post-feeding weight at the end of the 2 hour period. Gastric emptying during the 4 hour experiment is represented as: Gastric emptying=[1−(gastric content/food intake)]×100. Gastric Secretion
# Male, Sprague-Dawley rats (weighing between 240-283 g each and 5-6 rats per test group) were orally dosed with 3 mg/kg, 10 mg/kg or 30 mg/kg of Compound A with a 0.5% MC vehicle or with a 0.5% MC vehicle alone once a day for five days and were then fasted overnight. The rats were then dosed again on the sixth day and placed in individual, bedding-free cages and allowed ad libitium access to pre-weighed food and water for two hours. The food and water were then removed and the food was reweighed. Data were analyzed using a one-way ANOVA followed by a Dunnett's Multiple Comparison Test, where *P<0.05 as compared to the appropriate vehicle. Data are represented as the means+S.E.M. % Gastric Emptying in 4 hours=(1−(gastric content/food intake))×100.
# [2] = type: in vivo, cynomolgus monkeys
# Experimental: Compound A (10-100 mg/kg) was administered orally to cynomolgus monkeys and blood specimens were collected prior to dose administration and at target time points of 0.5, 1, 3, 5, 8, and 24 hours post-dose administration. Blood was collected via the femoral vein into tubes containing tripotassium ethylene-diamine-tetraacetic acid (K3EDTA) as the anticoagulant. Whole blood was centrifuged to obtain plasma (9000×g for 10 minutes at 4° C.) which was transferred into labeled tubes and stored at −80° C. Plasma calibration standards, blanks, and study samples were processed by protein precipitation. To a 50 μL aliquot 150 μL of a 10 ng/mL solution of an internal standard and 150 μL of acetonitrile was added. The mixture was eluted using positive pressure and analyzed by liquid chromatography/mass spectrometry/mass spectrometry with m/z transition of 462-417. Compound A concentrations were calculated using area response ratios and a regression line constructed from the concentrations and peak area response ratios of the calibration standards. […]. The lower limit of quantification (LLOQ) for the plasma method is approximately 0.5 ng/mL and the upper limit of quantification (ULOQ) is approximately 1000 ng/mL extracted from plasma using a 50-μL aliquot of sample.
# as §1
# Sprague-Dawley rats [3] = assay: Gastrointestinal transit, charcoal meal assay; type: in vivo, rat
# Experimental: Small intestinal transit was measured based on a known method which involved the oral administration of a charcoal meal (Gmerek et al. (1986). “Independent central and peripheral mediation of morphine-induced inhibition of gastrointestinal transit in rats.” J Pharmacol Exp Ther 236(1): 8-13). Rats were fasted with free access to water for 18 hours. Test compound or vehicle was dosed prior to oral administration of a charcoal slurry containing activated charcoal, flour and water in a ratio of 1:2:7.5 (10 ml/kg orally). One hour after receiving the charcoal slurry, rats were euthanized by CO2 asphyxiation. The stomach and GI tract was excised from each animal. Whole stomach weight was recorded and the length of the small intestine (cm) (stomach to cecum) and the distance (cm) to the leading edge of charcoal was measured. Small intestinal transit data are expressed as a percentage of the distance traveled (i.e. % small intestinal transit=(distance charcoal traveled)/(total length of small intestine (stomach to cecum)×100). Pretreatment times were determined on the basis of pharmacokinetic data (not shown) and were as follows: Compound A, 60 minutes, Compound C, 60 minutes; carbamazepine, 60 minutes. Morphine was administered with a pretreatment time of 30 mins based on previous experience.
# [4] = individual monkey presenting the highest plasma levels
# [5] = monkey, p.o. 100 mg/kg, animals affected/animals dosed, 100 mg/kg
# [6] = 30 mg/kg p.o. once a day, over 5 days
# [7] = p.o. 3, 10, 30 mg/kg once a day for 6 days, 0.5% MC
smiles,measurement,setting,value
C[C@H](Nc1cc(C(N)=O)nc(-c2ccc(Oc3ccc(OC(F)(F)F)cc3)cc2)n1)C(N)=O [Compound A],food intake after 24 hrs post-dosing,cynomolgus monkeys; [4],reduced food intake for at least two additional days post dosing
same,food intake and feces production up to 24 hrs post-dosing,cynomolgus monkeys; [4],zero food intake and zero feces production
same,food consumption or feces production,"cynomolgus monkeys; monkey, p.o. 10 mg/kg",no treatment related-effect was discernable
same,Clinical Observations (frequency): Diarrhea,"cynomolgus monkeys; monkey, p.o. 10 mg/kg, animals affected/animals dosed, 10 mg/kg",2 out of the 3 and (2/3)
same,Clinical Observations (frequency): Distended/Bloated Abdomen,"cynomolgus monkeys; monkey, p.o. 50 mg/kg, animals affected/animals dosed, 50 mg/kg",2 out of 4 and Abdomen (2/4)
same,Clinical Observations (frequency): Distended/Bloated Abdomen,cynomolgus monkeys; [5],2 out of 4 and Abdomen (2/4)
same,Clinical Observations (frequency): Low Food Consumption,cynomolgus monkeys; [5],2 out of the 4 and Consumption (2/4)
same,body weight lost as a percentage of total body weight,Sprague-Dawley rats [1]; [6],2.6%
same,mean body weight loss,Sprague-Dawley rats [1]; [6],6.3 g
same,body weight,"Sprague-Dawley rats [1]; measured on day 5, p.o. 3, 10, 30 mg/kg once a day",decreased for all Compound A dosage levels
same,% Gastric Emptying in 4 hours,Sprague-Dawley rats [1]; [7],inhibited the percentage of gastric emptying
same,food intake,Sprague-Dawley rats [1]; [7],decrease in food intake
same,time up to which plasma concentration continued increasing,"[2]; monkey, p.o. 10 mg/kg",8 h
same,time up to which plasma concentration continued increasing,"[2]; monkey, p.o. 50 mg/kg and 100 mg/kg",24 h
same,plasma levels versus dose,"[2]; monkey, single oral dose of 10, 50 and 100 mg/kg",increased with increasing dose in an approximately linear fashion
same,plasma concentrations,"[2]; monkey, single oral dose of 10, 50 and 100 mg/kg, up to 24 hours",measurable at all doses
same,plasma level of the individual monkey presenting the highest plasma levels,"[2]; p.o., at 24 hrs",over 3000 ng/ml
same,dosage level with significant effect on stomach weight,Sprague-Dawley rats [3]; charcoal meal assay,100 mg/kg
same,stomach weight,"Sprague-Dawley rats [3]; charcoal meal assay, vs vehicle treated animals",statistically significant increase in stomach weight
same,gastrointestinal transit (% small intestinal transit),"Sprague-Dawley rats [3]; charcoal meal, 60 minutes pretreatment, vs vehicle",No statistically significant decrease in gastrointestinal transit
